The compounds below were run against T1, human p38 kinase alpha (Homo sapiens, UniProt Q16539) (assay: p38 kinase alpha in vitro assay (phosphorylation of PHAS-I with 32P-ATP or of EGFRP with 33P-ATP)).
T1 construct: The coding region of the human p38a cDNA is obtained by PCR-amplification from RNA isolated from the human monocyte cell line THP.1; made in house; host or cells: E. coli DH10B (plasmid pMON 35802, pGEX 2T)
Format: biochemical
Method: The ability of compounds to inhibit human p38 kinase alpha is evaluated using two in vitro assay methods. In the first method, activated human p38 kinase alpha phosphorylates a biotinylated substrate, PHAS-I (phosphorylated heat and acid stable protein-insulin inducible), in the presence of gamma ^32P-ATP (^32P-ATP). PHAS-I is biotinylated prior to the assay and provides a means of capturing the substrate, which is phosphorylated during the assay. p38 Kinase is activated by MKK6. Compounds were tested in 10 fold serial dilutions over the range of 100 μM to 0.001 μM using 1% DMSO. Each concentration of inhibitor is tested in triplicate.
All reactions are carried out in 96 well polypropylene plates. Each reaction well contains 25 mM HEPES pH 7.5, 10 mM magnesium acetate and 50 μM unlabeled ATP. Activation of p38 is required to achieve sufficient signal in the assay. Biotinylated PHAS-I is used at 1–2 μg per 50 μl reaction volume, with a final concentration of 1.5 μM. Activated human p38 kinase alpha is used at 1 μg per 50 μl reaction volume representing a final concentration of 0.3 μM. Gamma ^32P-ATP is used to follow the phosphorylation of PHAS-I. ^32P-ATP has a specific activity of 3000 Ci/mmol and is used at 1.2 μCi per 50 μl reaction volume. The reaction proceeds either for one hour or overnight at 30° C.
Following incubation, 20 μl of reaction mixture is transferred to a high capacity streptavidin coated filter plate (SAM-streptavidin-matrix, Promega) prewetted with phosphate buffered saline. […] The plates are sealed and counted.
A second assay format is also employed that is based on p38 kinase alpha induced phosphorylation of EGFRP (epidermal growth factor receptor peptide, a 21 mer) in the presence ^33P-ATP. […] Compounds were evaluated in 50 μl reaction volumes in the presence of 25 mM Hepes pH 7.5, 10 mM magnesium acetate, 4% glycerol, 0.4% bovine serum albumin, 0.4 mM DTT, 50 μM unlabeled ATP, 25 μg EGFRP (200 μM), and 0.05 μCi ^33P-ATP. […] 150 μl of Microscint 40 is then added to each well of the Microlite plate, and the plate is sealed, mixed, and counted.

T1 sequence (Q16539 whole entry): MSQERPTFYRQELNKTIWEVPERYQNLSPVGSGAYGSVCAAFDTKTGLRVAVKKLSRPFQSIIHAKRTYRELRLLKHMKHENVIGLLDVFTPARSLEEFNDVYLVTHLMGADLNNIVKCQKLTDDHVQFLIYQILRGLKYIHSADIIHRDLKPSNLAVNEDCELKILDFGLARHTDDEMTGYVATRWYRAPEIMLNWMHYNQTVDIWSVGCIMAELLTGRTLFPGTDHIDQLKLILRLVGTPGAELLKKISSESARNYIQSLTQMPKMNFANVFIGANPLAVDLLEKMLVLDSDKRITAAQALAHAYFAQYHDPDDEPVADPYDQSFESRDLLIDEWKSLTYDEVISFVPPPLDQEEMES

IC50, < 5 µM:
COC(=O)c1ccc(C)c(-n2c(C)nc(OCc3ccc(F)cc3F)c(Br)c2=O)c1
CNC(=O)c1ccc(C)c(-n2c(C)nc(OCc3ccc(F)cc3F)c(Br)c2=O)c1
O=c1c(Br)c(OCc2ccccc2)ncn1Cc1ccccc1
